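Compound exposure: 48 hours, 5 concentrations, 96-well plates. At the GI50, growth is halved.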 Active and inactive are the calls of the source. Cut-off read from the data, not from the text of the source: active = GI50 up to about 1.1 µM and inactive = higher.
Tests used:
Test in all cases: DTP human tumour cell line panel, 48 h
[1] = tested on: SN12C
[2] = tested on: HCT-116
[3] = tested on: SK-MEL-5
[4] = tested on: UO-31
[5] = tested on: OVCAR-4
[6] = tested on: HT-29
[7] = tested on: HCT-15
[8] = tested on: UACC-62
[9] = tested on: K562
[10] = tested on: COLO 205
[11] = tested on: LXFL 529
[12] = tested on: DMS-114
[13] = tested on: UACC-257
[14] = tested on: SNB-19
[15] = tested on: HOP-18
[16] = tested on: KM-20L2
[17] = tested on: M19-MEL
[18] = tested on: A549
[19] = tested on: SF-295
[20] = tested on: NCI-H460
[21] = tested on: Malme-3M
[22] = tested on: NCI-H226
[23] = tested on: SF-539
[24] = tested on: RPMI-8226
[25] = tested on: CAKI-1
[26] = tested on: TK-10
[27] = tested on: SK-MEL-28
[28] = tested on: SR
[29] = tested on: MOLT-4
[30] = tested on: OVCAR-5
[31] = tested on: SNB-75
[32] = tested on: OVCAR-3
[33] = tested on: 786-0
[34] = tested on: A498
[35] = tested on: NCI-H522
[36] = tested on: ACHN
[37] = tested on: U-251
[38] = tested on: DLD-1
[39] = tested on: OVCAR-8
[40] = tested on: RXF 631
[41] = tested on: NCI-H23
[42] = tested on: HOP-62
[43] = tested on: M14
[44] = tested on: RXF 393
[45] = tested on: SW-620
[46] = tested on: SF-268
[47] = tested on: CCRF-CEM
[48] = tested on: HL-60
[49] = tested on: SNB-78
[50] = tested on: KM12
[51] = tested on: IGROV-1
[52] = tested on: HOP-92
[53] = tested on: LOX IMVI
[54] = tested on: SK-OV-3
[55] = tested on: EKVX
[56] = tested on: HCC 2998
[57] = tested on: SK-MEL-2
[58] = tested on: PC-3
[59] = tested on: Hs-578T
[60] = tested on: MDA-MB-231
[61] = tested on: MCF7
[62] = tested on: MDA-N
[63] = tested on: BT-549
[64] = tested on: T47D
[65] = tested on: NCI/ADR-RES
[66] = tested on: MDA-MB-435
[67] = tested on: DU-145
[68] = tested on: DMS-273

Measured: GI50

O=C(Nc1ccc(Cl)cc1Cl)c1c/c(=N\O)c2ccc(O)cc2o1
> 100 µM: [7]
inactive: [1] > 100 µM | [2] > 100 µM | [3] > 100 µM | [4] > 100 µM | [5] > 100 µM | [6] > 100 µM | [8] > 100 µM | [9] > 100 µM | [10] > 100 µM | [11] > 100 µM | [12] > 100 µM | [13] > 100 µM | [14] > 100 µM | [15] > 100 µM | [16] > 100 µM | [17] > 100 µM | [18] > 100 µM | [19] > 100 µM | [20] > 100 µM | [21] > 100 µM | [22] > 100 µM | [23] > 100 µM | [24] > 100 µM | [25] > 100 µM | [26] > 100 µM | [27] > 100 µM | [28] > 100 µM | [29] > 100 µM | [30] > 100 µM | [31] 30.9 µM | [32] > 100 µM | [33] > 100 µM | [34] > 100 µM | [35] > 100 µM | [36] > 100 µM | [37] > 100 µM | [38] > 100 µM | [39] > 100 µM | [40] > 100 µM | [41] > 100 µM | [42] > 100 µM | [43] > 100 µM | [44] > 100 µM | [45] > 100 µM | [46] > 100 µM | [47] > 100 µM | [48] > 100 µM | [49] > 100 µM | [50] > 100 µM | [51] > 100 µM | [52] > 100 µM | [53] > 100 µM | [54] > 100 µM

CN(C)CCC1(C2=CCCC2)CC/C(=C\c2ccccc2Cl)C1=O (stereo not drawn)
5.85 µM: [7]
inactive: [1] 13.4 µM | [2] 8.41 µM | [3] 12.8 µM | [4] 7.24 µM | [5] 11.9 µM | [6] 6.44 µM | [8] 14.6 µM | [9] 3.75 µM | [10] 16.2 µM | [11] 11.5 µM | [12] 12.2 µM | [13] 14.8 µM | [14] 14.3 µM | [15] 12.4 µM | [16] 11.5 µM | [17] 33 µM | [18] 13.8 µM | [19] 14.6 µM | [20] 13.2 µM | [21] 14.5 µM | [23] 15.2 µM | [24] 18.3 µM | [26] 18.7 µM | [27] 13.1 µM | [29] 4.57 µM | [30] 15.7 µM | [32] 14.3 µM | [33] 12.6 µM | [34] 14.1 µM | [36] 17.3 µM | [55] 15.6 µM | [37] 12.6 µM | [38] 15.2 µM | [39] 15 µM | [40] 6.07 µM | [41] 15.2 µM | [43] 12.1 µM | [44] 4.49 µM | [45] 11.9 µM | [46] 14.3 µM | [56] 8.61 µM | [47] 9.25 µM | [57] 13.5 µM | [48] 4.41 µM | [49] 12.4 µM | [50] 12.9 µM | [51] 19.8 µM | [52] 12.4 µM

C/C(=N\Nc1ccccc1)C(CN(C)C)C(c1ccccc1)c1c(O)c2ccccc2oc1=O (stereo not drawn)
inactive: [1] > 100 µM | [2] > 100 µM | [58] > 100 µM | [3] > 100 µM | [4] > 100 µM | [59] > 100 µM | [5] > 100 µM | [6] > 100 µM | [60] > 100 µM | [8] > 100 µM | [61] > 100 µM | [9] > 100 µM | [10] > 68.9 µM | [62] > 100 µM | [63] > 100 µM | [11] > 100 µM | [12] > 100 µM | [13] > 100 µM | [14] > 100 µM | [16] > 100 µM | [17] > 100 µM | [18] > 100 µM | [19] > 100 µM | [20] > 100 µM | [21] > 83 µM | [22] > 100 µM | [23] > 100 µM | [24] > 66.7 µM | [25] > 100 µM | [26] > 100 µM | [27] > 100 µM | [28] 85.9 µM | [29] 42.1 µM | [30] > 100 µM | [31] > 77.3 µM | [32] > 100 µM | [33] > 100 µM | [34] > 100 µM | [64] 89.3 µM | [35] > 100 µM | [36] > 100 µM | [55] > 100 µM | [37] > 100 µM | [39] > 100 µM | [40] > 100 µM | [41] > 100 µM | [42] > 100 µM | [43] > 100 µM | [44] > 100 µM | [45] > 100 µM | [46] > 100 µM | [56] > 100 µM | [65] > 100 µM | [47] > 83.8 µM | [57] > 100 µM | [48] > 59.8 µM | [50] > 100 µM | [51] > 100 µM | [66] > 100 µM | [52] > 35.2 µM | [67] > 100 µM | [53] > 100 µM | [54] > 100 µM
> 100 µM: [7]

O=C(Cc1nc(-c2ccccc2)cc(=O)n1-c1ccccc1Cl)c1ccncc1
inactive: [1] > 100 µM | [2] > 100 µM | [3] > 100 µM | [4] > 100 µM | [5] > 100 µM | [6] > 100 µM | [8] > 100 µM | [9] > 100 µM | [10] > 100 µM | [11] > 100 µM | [12] > 100 µM | [13] > 100 µM | [14] > 100 µM | [15] > 100 µM | [16] > 100 µM | [17] > 100 µM | [18] > 100 µM | [19] > 100 µM | [20] > 100 µM | [21] > 100 µM | [22] > 100 µM | [23] > 100 µM | [25] > 100 µM | [26] > 100 µM | [27] > 100 µM | [30] > 100 µM | [31] 25.2 µM | [32] > 100 µM | [33] > 100 µM | [34] > 100 µM | [35] > 100 µM | [36] > 100 µM | [55] > 100 µM | [68] > 100 µM | [37] > 100 µM | [38] > 100 µM | [39] > 100 µM | [40] > 100 µM | [41] > 100 µM | [42] > 100 µM | [43] > 100 µM | [44] > 100 µM | [45] > 100 µM | [46] > 100 µM | [56] > 100 µM | [47] > 100 µM | [57] > 100 µM | [48] 9.1 µM | [49] > 100 µM | [50] > 100 µM | [51] > 100 µM | [52] > 100 µM | [53] > 100 µM | [54] > 100 µM
> 100 µM: [7]

O=C(N/N=C(\c1nc2ccc(Cl)cc2nc1O)C(O)c1ccccc1Cl)c1ccncc1 (stereo not drawn)
> 100 µM: [7]
inactive: [2] > 100 µM | [3] > 100 µM | [4] > 100 µM | [5] > 100 µM | [6] > 100 µM | [8] > 100 µM | [9] > 100 µM | [10] > 100 µM | [11] > 100 µM | [12] > 100 µM | [13] > 100 µM | [14] > 100 µM | [15] > 100 µM | [16] > 100 µM | [17] > 100 µM | [18] > 100 µM | [19] > 100 µM | [20] > 100 µM | [21] > 100 µM | [22] > 100 µM | [23] > 100 µM | [25] > 100 µM | [26] > 100 µM | [27] > 100 µM | [29] > 100 µM | [30] > 100 µM | [31] > 100 µM | [32] > 100 µM | [33] > 100 µM | [34] > 100 µM | [35] > 100 µM | [36] > 100 µM | [55] > 100 µM | [68] > 100 µM | [38] > 100 µM | [40] > 100 µM | [41] > 100 µM | [43] > 100 µM | [44] > 100 µM | [45] > 100 µM | [46] > 100 µM | [56] > 100 µM | [47] > 100 µM | [57] > 100 µM | [48] > 100 µM | [50] > 100 µM | [51] > 100 µM | [52] > 100 µM | [53] > 100 µM | [54] > 100 µM

Source: ChEMBL document CHEMBL1201862, “PubChem BioAssay data set” (2004)
